From patent US20200038399A1, “FORMULATIONS, METHODS, KIT, AND DOSAGE FORMS FOR TREATING BACTERIAL INFECTION” (Motif BioSciences Inc., priority 2016, published 2020)
Several values for one entry are separate records, joined by “and”; a condition that tells them apart may be missing. Equal entries are not always repeated.

Assays:
Gram-positive bacteria = conditions: cited from earlier work
[1] = in vivo; cited from earlier work
hERG channel = hERG channel (Homo sapiens, UniProt Q12809); conditions: cited from earlier work
[2] = system: Staphylococcus aureus AH 1246; assay: mouse subcutaneous abscess model; assay type: in vivo; conditions: mice; 40 mg/Kg (alone); PO @ 8, 24, 32, 48, 56 hours post infection
Protocol: Wild type S. aureus ATCC 25923 and its TK-deficient mutant AH 1246 were supplied by Arpida AG, Reinach, Switzerland.
S. aureus strains were grown on TSA plates at 37° C. in 5% CO2. The bacteria concentration was adjusted by re-suspending a portion of the overnight growth of the plate in saline and adjusting a 1:10 dilution of the suspension to achieve an OD625 of 0.1. The adjusted suspension was diluted 1:2 in prepared Cytodex beads (1 gram/50 mL PBS) to a final concentration of 5.0×10^5 CFU/mL. Bacterial enumeration was performed to determine actual concentration of the bacterial inoculum.
CD-1 female mice (weighing 18 to 22 grams) from Charles River Laboratories (Wilmington, Mass.) were acclimated for 5 days prior to start of study. All studies were performed under approved IACUC protocols and conform to OLAW standards. Animals had free access to food and water throughout the study. Animals were provided enrichment and housed 5 per cage.
Mice were injected SC with 0.2 mL of the bacterial-Cytodex inoculum. […] The mice were then euthanized and the abscesses aseptically removed, homogenized, serially diluted and plated for bacterial enumeration.

Pneumocystis jirovecii [3] = assay: in vivo Pneumocystis pneumonia model, corticosteroid-treated rats; conditions: once a day for 10 days; for Mean % + SD (inhibition of cysts, TBO) / Mean % + SD (inhibition of total parasites, Giemsa): group mean; for Total cysts (TBO) / Total parasites (Giemsa): rat lung; for Total cysts (TBO) / Total parasites (Giemsa) / % of inhibition vs Control (total parasites, Giemsa) / % of inhibition vs control (cysts, TBO): single rat
Protocol: Compound solutions were prepared just before use.
The drugs were given once a day for 10 consecutive days. The final concentration of DMSO in diluted drug solutions was between 1.5 and 15%. Control animals were dosed with sterile water with 15% of DMSO. At the end of the experiment, therapeutic efficacy was assessed by counting P. jirovecii in lung homogenates and comparing the counts with those of the untreated controls. Twenty-four hours after the end of the treatment, animals were sacrificed and the lung homogenized in a Stomacher-400 blender as previously described (European Concerted Action on Pneumocystis Research. Parasitology Today 12: 245-9, 1996, the entire disclosure of which is herein incorporated by reference). Parasite quantitation was performed on air-dried smears stained with toluidine blue 0 (cystic forms) or RAL-555 stains (vegetative, precystic and cystic forms).

S. aureus 101 = assay: MIC determination; assay type: cell-based, Staphylococcus aureus; conditions: Staphylococcus aureus, 101, 18 h; read-out: Minimum inhibitory concentrations (MIC)
In short: (§1)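 Visible-growth endpoint after 18 h, 37 °C. Cation-adjusted Mueller-Hinton broth was used for K. pneumoniae and S. aureus in ambient air; H. influenzae (HTM) and M. catarrhalis (Brain Heart Infusion) were incubated under 5% CO2.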

S. pneumoniae 1/1 = assay: MIC determination; assay type: cell-based, Streptococcus pneumoniae; conditions: Streptococcus pneumoniae; S. pneumoniae 1/1; 18 hours at 37° C., 5% CO2; read-out: Minimum inhibitory concentrations (MIC)
[4] = system: Haemophilus influenzae ATCC 49766; assay: MIC determination; assay type: cell-based; conditions: Haemophilus influenzae, ATCC49766; H. Influenza 49766; 18 hours at 37° C., 5% CO2; read-out: Minimum inhibitory concentrations (MIC)
In short: as §1

[5] = system: Klebsiella pneumoniae ATCC 33495; assay: MIC determination; assay type: cell-based; conditions: Klebsiella pneumoniae, ATCC33495; K. pneumonia 33495; 18 hours at 37° C.; read-out: Minimum inhibitory concentrations (MIC)
In short: as §1

[6] = system: Moraxella catarrhalis RA 21; assay: MIC determination; assay type: cell-based; conditions: Moraxella catarrhalis, RA21; M. catarrhalis RA 21; 18 hours at 37° C., 5% CO2; read-out: Minimum inhibitory concentrations (MIC)
In short: as §1

[7] = system: Staphylococcus aureus ATCC 25923; assay: MIC determination; assay type: cell-based; conditions: Staphylococcus aureus, ATCC25923; S. aureus 25923; 18 hours at 37° C.; read-out: Minimum inhibitory concentrations (MIC)
In short: as §1

[8] = system: Streptococcus pneumoniae ATCC 49619; assay: MIC determination; assay type: cell-based; conditions: Streptococcus pneumoniae, ATCC49619; S. pneumoniae 49619; 18 hours at 37° C., 5% CO2; read-out: Minimum inhibitory concentrations (MIC)
[9] = in vivo; cited from earlier work; remark: listed apart in the source
Pneumocystis jirovecii [10] = assay: in vitro anti-Pneumocystis susceptibility, broth microdilution in axenic culture; conditions: 4 days
Protocol: Iclaprim was synthesized at Arpida Ltd. (Münchenstein, Switzerland). TMP and SMX were obtained from Sigma, Spain. […] TMP and SMX solutions were mixed appropriately to obtain a final 1:5-combination. For evaluating the in vitro anti-Pneumocystis activity, the drug stock solutions were diluted in Dulbecco's Modified Eagle's Medium (DMEM, Bio-Whittaker) supplemented with 10% heat-inactivated fetal calf serum (FCS, GIBCO-BRL) to produce the required drug concentrations. […] Compound solutions were prepared just before use.
Corticosteroid-treated conventional laboratory rats were used as an animal model to obtain P. jirovecii organisms. Ten-week-old female Wistar rats (Harlan, France) were immunosuppressed for 3 weeks with dexamethasone (Fortecortin®, Merck) administered in the drinking water (2 mg/liter). Rats were then inoculated with 20×10^6 of cryopreserved parasites using a non-surgical endotracheal method. Dexamethasone treatment was maintained until the end of the experiment. Six to eight weeks' post-inoculation (p.i.) rats were highly infected, without secondary fungal or bacterial infection. Animals were allowed sterile standard food (UAR, France) and water ad libitum.
Six to eight weeks following inoculation, rats were sacrificed and parasite extraction was performed. Briefly, parasites were extracted in Dulbecco's Modified Eagle's Medium (DMEM; Bio-Whittaker) by agitation of lung pieces with a magnetic stirrer. The resulting homogenate was poured successively through gauze, 250 and 63 micron stainless steels filters. After centrifugation, the pellet was resuspended in a hemolytic buffered solution. […] Blood and Sabouraud dextrose agar (Difco) media were inoculated with purified parasites to check for the presence of eventual contaminating pathogens.
In vitro pharmacodynamic properties were determined using the Hill equation (Emax sigmoid model; see below).
In vitro susceptibility studies were performed using the broth microdilution technique. […] All the experiments were carried out in 24-well plates with a final volume of 2 ml of DMEM supplemented with 10% FCS containing a final inoculum of 0.5×10^6 organisms per ml. Plates were then incubated for 4 days in an atmosphere of 5% C0^2 at 37° C. One free-drug control was included in each assay. Parasite quantitation was performed on homogenate smears as described above. All susceptibility assays were set up in triplicate.
Analysis of results. […] Once all the differences between drug-treated and untreated wells were calculated, the concentration-effect relationship was established by using the Hill equation:
The parameters of this pharmacodynamic model were calculated by nonlinear least-squares regression techniques using a commercial software (Sigma Plot).

[11] = 5 mg/kg/d oral, listed as AR-100, 5 mg/kg/day
[12] = 25 mg/kg/d oral, listed as AR-100, 25 mg/kg/day
[13] = 50 mg/kg/d oral, listed as AR-100, 50 mg/kg/day

Sequence of hERG channel (Q12809 whole entry): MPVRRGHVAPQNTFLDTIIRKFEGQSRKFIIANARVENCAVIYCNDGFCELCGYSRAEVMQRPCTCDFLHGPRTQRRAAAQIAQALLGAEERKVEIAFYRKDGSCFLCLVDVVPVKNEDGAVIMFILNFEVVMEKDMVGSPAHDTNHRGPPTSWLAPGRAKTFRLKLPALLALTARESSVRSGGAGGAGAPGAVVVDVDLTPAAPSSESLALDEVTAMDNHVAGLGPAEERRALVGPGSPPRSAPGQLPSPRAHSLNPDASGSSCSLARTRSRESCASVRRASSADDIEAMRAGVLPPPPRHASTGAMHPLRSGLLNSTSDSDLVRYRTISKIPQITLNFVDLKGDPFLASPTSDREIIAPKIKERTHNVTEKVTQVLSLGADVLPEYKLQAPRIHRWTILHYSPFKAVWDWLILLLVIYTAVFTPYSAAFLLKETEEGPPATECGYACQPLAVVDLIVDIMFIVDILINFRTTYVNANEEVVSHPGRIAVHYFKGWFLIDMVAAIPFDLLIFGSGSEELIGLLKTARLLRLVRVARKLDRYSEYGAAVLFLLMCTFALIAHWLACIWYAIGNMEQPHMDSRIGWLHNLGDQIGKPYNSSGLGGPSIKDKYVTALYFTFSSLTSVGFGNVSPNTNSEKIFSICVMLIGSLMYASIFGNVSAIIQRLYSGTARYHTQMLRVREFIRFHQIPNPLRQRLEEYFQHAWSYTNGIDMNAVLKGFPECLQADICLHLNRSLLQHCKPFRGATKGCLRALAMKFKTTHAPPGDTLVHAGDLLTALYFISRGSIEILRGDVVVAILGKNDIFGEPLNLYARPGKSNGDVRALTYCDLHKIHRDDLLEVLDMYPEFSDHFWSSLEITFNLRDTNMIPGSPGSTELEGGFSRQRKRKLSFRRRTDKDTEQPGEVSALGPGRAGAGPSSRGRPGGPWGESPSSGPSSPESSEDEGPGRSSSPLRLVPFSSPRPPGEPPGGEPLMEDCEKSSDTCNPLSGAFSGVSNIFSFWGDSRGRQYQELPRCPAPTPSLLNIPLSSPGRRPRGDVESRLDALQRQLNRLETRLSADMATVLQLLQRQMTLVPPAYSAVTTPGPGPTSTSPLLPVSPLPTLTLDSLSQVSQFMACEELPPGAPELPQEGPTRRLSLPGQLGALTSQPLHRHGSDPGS

**Q.** Which results are given for COc1cc(Cc2cnc(N)nc2N)c2c(c1OC)O[C@H](C1CC1)C=C2 [R-enantiomer, 5-[(2R)-2-cyclopropyl-7,8-dimethoxy-2Hchromen-5-ylmethyl] pyrimidine-2,4-diamine]?
**A.** minimum inhibitory concentration (MIC) compared with the S-enantiomer (Gram-positive bacteria): lower minimum inhibitory concentration (MIC) than the S-enantiomer; pharmacokinetic parameters compared with the S-enantiomer [1]: more favorable pharmacokinetic parameters; hERG channel activity compared with the S-enantiomer (hERG channel): reduced hERG channel activity

**Q.** For COc1cc(Cc2cnc(N)nc2N)c2c(c1OC)OC(C1CC1)C=C2 (racemic) [Iclaprim, 5-[(2RS)-2-cyclopropyl-7,8-dimethoxy-2Hchromen-5-ylmethyl] pyrimidine-2,4-diamine], which “Change in average log10 CFU/gr of Abscess from Controls” value [2] is on record?
**A.** Its value is −0.79 log10 CFU/gr.

**Q.** What about the “Mean % + SD (inhibition of cysts, TBO)” value (Pneumocystis jirovecii [3]; 5 mg/kg/d oral) of the same compound?
**A.** Its value is 69.4 ± 8.4%.

**Q.** What about the “Mean % + SD (inhibition of total parasites, Giemsa)” value (Pneumocystis jirovecii [3]; 5 mg/kg/d oral) of the same compound?
**A.** The value was 66.9 ± 7.8%.

**Q.** What about the “Mean % + SD (inhibition of cysts, TBO)” value (Pneumocystis jirovecii [3]; 25 mg/kg/d oral) of the same compound?
**A.** The value was 72.0 ± 30.0%.

**Q.** What about the “Mean % + SD (inhibition of total parasites, Giemsa)” value (Pneumocystis jirovecii [3]; 25 mg/kg/d oral) of the same compound?
**A.** The value was 79.1 ± 20.9%.

**Q.** What about the “Mean % + SD (inhibition of cysts, TBO)” value (Pneumocystis jirovecii [3]; 50 mg/kg/d oral) of the same compound?
**A.** The value was 71.7 ± 14.5%.

**Q.** What about the “Mean % + SD (inhibition of total parasites, Giemsa)” value (Pneumocystis jirovecii [3]; 50 mg/kg/d oral) of the same compound?
**A.** Its value is 76.5 ± 13.3%.

**Q.** And the “Total cysts (TBO)” value (Pneumocystis jirovecii [3]; [11])?
**A.** The value was 3.85.10^+7 and 2.60.10^+7 and 4.61.10^+7.

**Q.** What about the “Total parasites (Giemsa)” value (Pneumocystis jirovecii [3]; [11]) of the same compound?
**A.** Its value is 9.13.10^+8 and 6.56.10^+8.

**Q.** And the “Total cysts (TBO)” value (Pneumocystis jirovecii [3]; [12])?
**A.** Its value is 1.72.10^+7 and 8.94.10^+6 and 9.11.10^+7.

**Q.** What about the “Total parasites (Giemsa)” value (Pneumocystis jirovecii [3]; [12]) of the same compound?
**A.** The value was 3.94.10^+8 and 3.41.10^+7 and 9.38.10^+8.

**Q.** And the “Total cysts (TBO)” value (Pneumocystis jirovecii [3]; [13])?
**A.** The value was 5.17.10^+7 and 3.38.10^+7 and 5.23.10^+7.

**Q.** And the “Total parasites (Giemsa)” value (Pneumocystis jirovecii [3]; [13])?
**A.** Its value is 5.68.10^+8 and 7.71.10^+8 and 2.00.10^+8.

**Q.** What about the “% of inhibition vs Control (total parasites, Giemsa)” value (Pneumocystis jirovecii [3]; [11]) of the same compound?
**A.** The value was 58.1% and 69.9% and 72.8%.

**Q.** What about the “% of inhibition vs control (cysts, TBO)” value (Pneumocystis jirovecii [3]; [11]) of the same compound?
**A.** Its value is 68.0% and 78.4% and 61.7%.

**Q.** And the “% of inhibition vs Control (total parasites, Giemsa)” value (Pneumocystis jirovecii [3]; [12])?
**A.** The value was 81.9% and 98.4% and 90.8%.

**Q.** And the “% of inhibition vs control (cysts, TBO)” value (Pneumocystis jirovecii [3]; [12])?
**A.** The value was 85.7% and 92.6% and 37.7%.

**Q.** What about the “% of inhibition vs Control (total parasites, Giemsa)” value (Pneumocystis jirovecii [3]; [13]) of the same compound?
**A.** The value was 74.0% and 64.7% and 90.8%.

**Q.** And the “% of inhibition vs control (cysts, TBO)” value (Pneumocystis jirovecii [3]; [13])?
**A.** Its value is 57.1% and 71.9% and 86.1%.

**Q.** What about the MIC (S. aureus 101) of the same compound?
**A.** Its MIC is 1 µg/mL.

**Q.** What about the MIC (S. pneumoniae 1/1) of the same compound?
**A.** The MIC was 1 µg/mL.

**Q.** What about the MIC [4] of the same compound?
**A.** The MIC was 0.25 µg/mL.

**Q.** What about the MIC [5] of the same compound?
**A.** Its MIC is 8 µg/mL.

**Q.** And the MIC [6]?
**A.** The MIC was 2 µg/mL.

**Q.** What about the MIC [7] of the same compound?
**A.** Its MIC is 0.063 µg/mL.

**Q.** What about the MIC [8] of the same compound?
**A.** Its MIC is 0.125 µg/mL.

**Q.** What about the “t½ (plasma half-life)” value [9] of the same compound?
**A.** Its value is “about 2.9 hours”.

**Q.** And the “% inhibition vs control” value (Pneumocystis jirovecii [10]; Iclaprim 5 μg/ml)?
**A.** The value was 5.8 ± 2.6%.

**Q.** What about the “Log (total parasites)” value (Pneumocystis jirovecii [10]; Iclaprim 5 μg/ml) of the same compound?
**A.** Its value is 6.2.

**Q.** What about the “Total parasites (× 10^6)” value (Pneumocystis jirovecii [10]; Iclaprim 5 μg/ml) of the same compound?
**A.** Its value is 1.5 ± 0.04 × 10^6.

**Q.** And the “% inhibition vs control” value (Pneumocystis jirovecii [10]; Iclaprim 11 μg/ml)?
**A.** Its value is 19.3 ± 7.4%.

**Q.** And the “Log (total parasites)” value (Pneumocystis jirovecii [10]; Iclaprim 11 μg/ml)?
**A.** The value was 6.1.

**Q.** What about the “Total parasites (× 10^6)” value (Pneumocystis jirovecii [10]; Iclaprim 11 μg/ml) of the same compound?
**A.** Its value is 1.3 ± 0.1 × 10^6.

**Q.** What about the “% inhibition vs control” value (Pneumocystis jirovecii [10]; Iclaprim 18 μg/ml) of the same compound?
**A.** The value was 44.0 ± 6.3%.

**Q.** And the “Log (total parasites)” value (Pneumocystis jirovecii [10]; Iclaprim 18 μg/ml)?
**A.** Its value is 5.9.

**Q.** And the “Total parasites (× 10^6)” value (Pneumocystis jirovecii [10]; Iclaprim 18 μg/ml)?
**A.** Its value is 0.9 ± 0.1 × 10^6.

**Q.** And the “% inhibition vs control” value (Pneumocystis jirovecii [10]; Iclaprim 24 μg/ml)?
**A.** The value was 58.1 ± 3.1%.

**Q.** What about the “Log (total parasites)” value (Pneumocystis jirovecii [10]; Iclaprim 24 μg/ml) of the same compound?
**A.** Its value is 5.8.

**Q.** What about the “Total parasites (× 10^6)” value (Pneumocystis jirovecii [10]; Iclaprim 24 μg/ml) of the same compound?
**A.** The value was 0.7 ± 0.05 × 10^6.

**Q.** What about the “% inhibition vs control” value (Pneumocystis jirovecii [10]; Iclaprim 31 μg/ml) of the same compound?
**A.** Its value is 79.3 ± 4.8%.

**Q.** What about the “Log (total parasites)” value (Pneumocystis jirovecii [10]; Iclaprim 31 μg/ml) of the same compound?
**A.** Its value is 5.5.

**Q.** What about the “Total parasites (× 10^6)” value (Pneumocystis jirovecii [10]; Iclaprim 31 μg/ml) of the same compound?
**A.** Its value is 0.3 ± 0.08 × 10^6.

**Q.** What about the “% inhibition vs control” value (Pneumocystis jirovecii [10]; Iclaprim 37 μg/ml) of the same compound?
**A.** Its value is 92.3 ± 1.9%.

**Q.** And the “Log (total parasites)” value (Pneumocystis jirovecii [10]; Iclaprim 37 μg/ml)?
**A.** The value was 5.1.

**Q.** And the “Total parasites (× 10^6)” value (Pneumocystis jirovecii [10]; Iclaprim 37 μg/ml)?
**A.** The value was 0.1 ± 0.03 × 10^6.

**Q.** What about the “% inhibition vs control” value (Pneumocystis jirovecii [10]; Iclaprim 44 μg/ml) of the same compound?
**A.** Its value is 98.3 ± 0.72%.

**Q.** What about the “Log (total parasites)” value (Pneumocystis jirovecii [10]; Iclaprim 44 μg/ml) of the same compound?
**A.** Its value is 4.4.

**Q.** What about the “Total parasites (× 10^6)” value (Pneumocystis jirovecii [10]; Iclaprim 44 μg/ml) of the same compound?
**A.** Its value is 0.03 ± 0.01 × 10^6.

**Q.** And the “% inhibition vs control” value (Pneumocystis jirovecii [10]; Iclaprim 50 μg/ml)?
**A.** Its value is 99.7 ± 0.04%.

**Q.** What about the “Log (total parasites)” value (Pneumocystis jirovecii [10]; Iclaprim 50 μg/ml) of the same compound?
**A.** The value was 3.7.

**Q.** And the “Total parasites (× 10^6)” value (Pneumocystis jirovecii [10]; Iclaprim 50 μg/ml)?
**A.** Its value is 0.01 ± 0.001 × 10^6.

**Q.** What about the “% inhibition vs control” value (Pneumocystis jirovecii [10]; Iclaprim 80 μg/ml) of the same compound?
**A.** Its value is 99.8 ± 0.12%.

**Q.** What about the “Log (total parasites)” value (Pneumocystis jirovecii [10]; Iclaprim 80 μg/ml) of the same compound?
**A.** The value was 3.4.

**Q.** What about the “Total parasites (× 10^6)” value (Pneumocystis jirovecii [10]; Iclaprim 80 μg/ml) of the same compound?
**A.** The value was 0.003 ± 0.002 × 10^6.

**Q.** And the “% inhibition vs control” value (Pneumocystis jirovecii [10]; Iclaprim 100 μg/ml)?
**A.** The value was 99.9 ± 0.07%.

**Q.** What about the “Log (total parasites)” value (Pneumocystis jirovecii [10]; Iclaprim 100 μg/ml) of the same compound?
**A.** The value was 3.3.

**Q.** What about the “Total parasites (× 10^6)” value (Pneumocystis jirovecii [10]; Iclaprim 100 μg/ml) of the same compound?
**A.** The value was 0.002 ± 0.001 × 10^6.
